Data published in patent US20260184712A1, “Heterocyclic Compounds as ENT Inhibitors and Compounds for Use in the Treatment of Cancers” (iTeos Belgium SA, priority 2022, published 2026).

biological target: T1, human ENT1 (Homo sapiens, UniProt Q99808); test: ENT1 binding assay (competition with Sahenta-DY647 on JAR cells); conditions: Binding Assay IC50, competition with SAHENTA-DY647 binding; IC50 categorized
T1 construct: JAR cells expressing ENT1 were purchased from ATCC; host or cells: JAR cells
T1 sequence (Q99808 1-456): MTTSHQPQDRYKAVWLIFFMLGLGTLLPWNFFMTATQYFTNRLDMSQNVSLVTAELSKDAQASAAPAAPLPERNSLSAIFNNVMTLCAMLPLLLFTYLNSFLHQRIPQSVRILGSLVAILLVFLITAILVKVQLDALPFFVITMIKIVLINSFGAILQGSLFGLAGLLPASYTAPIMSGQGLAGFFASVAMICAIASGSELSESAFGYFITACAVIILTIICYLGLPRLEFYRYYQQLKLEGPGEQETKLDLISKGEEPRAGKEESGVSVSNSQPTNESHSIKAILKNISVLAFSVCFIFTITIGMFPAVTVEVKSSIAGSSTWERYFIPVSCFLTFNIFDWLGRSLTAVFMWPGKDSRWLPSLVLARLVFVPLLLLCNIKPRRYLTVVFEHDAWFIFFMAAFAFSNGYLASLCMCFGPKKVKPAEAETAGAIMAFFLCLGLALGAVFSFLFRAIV
Outline: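 Fluorescent-tracer displacement: compound incubated with JAR cells 30 min, 4 °C, before Sahenta-DY647 (100 nM) for another 30 min, 4 °C, in Hepes-buffered HBSS with 0.1% BSA. Bound tracer read at 670 nm after washes; IC50 from four-parameter fit, reported as mean of pIC50 values.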

| Compound | IC50 [nM] |
| --- | --- |
| C[C@H]1O[C@@H](n2cnc3c(COc4ccc(C#N)cc4)ncnc32)[C@H](O)[C@@H]1O [Compound 280] | > 500 |

same assay, conditions: competition with SAHENTA-DY647 binding; IC50 categorized; read-out: Binding Assay IC50

| Compound | IC50 [nM] |
| --- | --- |
| CNC(=O)[C@H]1O[C@@H](n2cnc3c(OCc4ccc([N+](=O)[O-])cc4)ncnc32)[C@H](O)[C@@H]1O [Compound 279] | > 500 |
| C[C@H]1O[C@@H](n2cnc3c(OCc4ccc([N+](=O)[O-])cn4)ncnc32)[C@H](O)[C@@H]1O [Compound 281] | > 500 |
| C[C@H]1O[C@@H](n2cnc3c(NCc4ccc(C(F)(F)F)c(Cl)c4)ncnc32)[C@H](O)[C@@H]1O [Compound 282] | > 500 |
| COc1nc(OCc2ccc([N+](=O)[O-])cc2)c2ncn([C@@H]3O[C@H](C)[C@@H](O)[C@H]3O)c2n1 [Compound 283] | > 500 |
| C[C@H]1O[C@@H](n2cnc3c(OCc4cc(F)c(C#N)c(F)c4)nc(Cl)nc32)[C@H](O)[C@@H]1O [Compound 284] | > 500 |
| C[C@H]1O[C@@H](n2cnc3c(COc4ccc(Cl)cc4)ncnc32)[C@H](O)[C@@H]1O [Compound 285] | > 500 |
| NC[C@H]1O[C@@H](n2cnc3c(SCc4ccc([N+](=O)[O-])cc4)ncnc32)[C@H](O)[C@@H]1O [Compound 287] | > 500 |
| C[C@H]1O[C@@H](n2cnc3c(COc4ccc(OC(F)(F)F)cc4)ncnc32)[C@H](O)[C@@H]1O [Compound 288] | > 500 |
| Cc1cc(CSc2ncnc3c2ncn3[C@@H]2O[C@H](C)[C@@H](O)[C@H]2O)n(C)n1 [Compound 289] | > 500 |
| C[C@H]1O[C@@H](n2cnc3c(COCc4ccc(Cl)cc4)ncnc32)[C@H](O)[C@@H]1O [Compound 290] | > 500 |
| C[C@H]1O[C@@H](n2cnc3c(OCc4ccc(-c5cnco5)cc4)ncnc32)[C@H](O)[C@@H]1O [Compound 291] | > 500 |
| CN(CCO)C(=O)[C@H]1O[C@@H](n2cnc3c(OCc4ccc([N+](=O)[O-])cc4)ncnc32)[C@H](O)[C@@H]1O [Compound 292] | > 500 |
| C[C@H]1O[C@@H](n2cnc3c(OCCc4ccc(Cl)cc4)ncnc32)[C@H](O)[C@@H]1O [Compound 293] | > 500 |
| C[C@H]1O[C@@H](n2cnc3c(OCCc4ccc(CF)cc4)ncnc32)[C@H](O)[C@@H]1O [Compound 294] | > 500 |
| C[C@H]1O[C@@H](n2cnc3c(C(=O)NCc4ccc(OC(F)(F)F)cc4)ncnc32)[C@H](O)[C@@H]1O [Compound 295] | > 500 |
| C[C@H]1O[C@@H](n2cnc3c(COc4ccc(OCF)cc4)ncnc32)[C@H](O)[C@@H]1O [Compound 296] | > 500 |
| CNS(=O)(=O)c1ccc(CSc2ncnc3c2ncn3[C@@H]2O[C@H](C)[C@@H](O)[C@H]2O)cc1 [Compound 297] | > 500 |
| C[C@H]1O[C@@H](n2cnc3c(C(=O)NCc4ccc(C(F)(F)F)cc4)ncnc32)[C@H](O)[C@@H]1O [Compound 298] | > 500 |
| C[C@H]1O[C@@H](n2cnc3c(N4CCN(c5ccc([N+](=O)[O-])cc5)CC4)ncnc32)[C@H](O)[C@@H]1O [Compound 299] | > 500 |
| C[C@H]1O[C@@H](n2cnc3c(SCc4cscn4)ncnc32)[C@H](O)[C@@H]1O [Compound 300] | > 500 |

| Compound | IC50 [nM] |
| --- | --- |
| C[C@H]1O[C@@H](n2cnc3c(C(=O)NCc4ccc(OC(F)F)cc4)ncnc32)[C@H](O)[C@@H]1O [Compound 301] | > 500 |
| C[C@H]1O[C@@H](n2cnc3c(C(=O)N4CCc5cc([N+](=O)[O-])ccc5C4)ncnc32)[C@H](O)[C@@H]1O [Compound 302] | > 500 |
| OC[C@@H]1C[C@@H](O)[C@H](n2cnc3c(OCc4ccc(OC(F)F)cc4)ncnc32)O1 [Compound 303] | > 500 |
| CC(NC(=O)c1ncnc2c1ncn2[C@@H]1O[C@H](C)[C@@H](O)[C@H]1O)c1ccc([N+](=O)[O-])cc1 (stereo partly shown) [Compound 305] | > 500 |
| C[C@H]1O[C@@H](n2cnc3c(SCc4cccc(OC5CC5)c4)ncnc32)[C@H](O)[C@@H]1O [Compound 306] | > 500 |
| C[C@H]1O[C@@H](n2cnc3c(OCc4ccc(C(F)(F)F)cc4Cl)ncnc32)[C@H](O)[C@@H]1O [Compound 307] | > 500 |
| C[C@H]1O[C@@H](n2cnc3c(SCc4ccc5ccncc5c4)ncnc32)[C@H](O)[C@@H]1O [Compound 308] | > 500 |
| O=[N+]([O-])c1ccc(COc2ncnc3c2nnn3[C@@H]2C[C@H](OCCO)[C@@H](O)[C@H]2O)cc1 [Compound 309] | > 500 |
| C[C@H]1O[C@@H](n2cnc3c(SCc4nc(-c5ccccc5Cl)no4)ncnc32)[C@H](O)[C@@H]1O [Compound 310] | > 500 |
| C[C@H]1O[C@@H](n2cnc3c(SCc4cnc(C(F)(F)F)nc4)ncnc32)[C@H](O)[C@@H]1O [Compound 311] | > 500 |
| C[C@H]1O[C@@H](n2cnc3c(C(=O)NCc4ccc([N+](=O)[O-])cc4)ncnc32)[C@H](O)[C@@H]1O [Compound 312] | > 500 |
| C[C@H]1O[C@@H](n2cnc3c(OCc4ccc5c(c4)OCC5)ncnc32)[C@H](O)[C@@H]1O [Compound 313] | > 500 |
| C[C@H]1O[C@@H](n2cnc3c(OCc4ccc(-n5cncn5)cc4)ncnc32)[C@H](O)[C@@H]1O [Compound 314] | > 500 |
| C[C@H]1O[C@@H](n2cnc3c(N4CCC(c5ccc([N+](=O)[O-])cc5)C4)ncnc32)[C@H](O)[C@@H]1O (stereo partly shown) [Compound 315] | > 500 |
| C[C@H]1O[C@@H](n2cnc3c(OCc4ccc(-n5ccnc5)cc4)ncnc32)[C@H](O)[C@@H]1O [Compound 316] | > 500 |
| C[C@H]1O[C@@H](n2cnc3c(CN4Cc5ccc(C#N)cc5C4)ncnc32)[C@H](O)[C@@H]1O [Compound 317] | > 500 |
| C[C@H]1O[C@@H](n2cnc3c(NCc4cccc(C(F)F)c4)ncnc32)[C@H](O)[C@@H]1O [Compound 318] | > 500 |
| C[C@H]1O[C@@H](n2cnc3c(OCCc4ccc(C#N)nc4)ncnc32)[C@H](O)[C@@H]1O [Compound 319] | > 500 |
| Cc1ccc(CNc2ncnc3c2ncn3[C@@H]2O[C@H](C)[C@@H](O)[C@H]2O)cc1C [Compound 320] | > 500 |
| C[C@H]1O[C@@H](n2cnc3c(OCc4cscn4)ncnc32)[C@H](O)[C@@H]1O [Compound 321] | > 500 |

| Compound | IC50 [nM] |
| --- | --- |
| C[C@H]1O[C@@H](n2cnc3c(NCc4ccc5c(c4)CCC5)ncnc32)[C@H](O)[C@@H]1O [Compound 322] | > 500 |
| C[C@H]1O[C@@H](n2cnc3c(OCc4ccccc4C(F)(F)F)ncnc32)[C@H](O)[C@@H]1O [Compound 323] | > 500 |
| C[C@H]1O[C@@H](n2cnc3c(N(C)CCc4ccc([N+](=O)[O-])cc4)ncnc32)[C@H](O)[C@@H]1O [Compound 324] | > 500 |
| COc1ccccc1COc1ncnc2c1ncn2[C@@H]1O[C@H](C)[C@@H](O)[C@H]1O [Compound 325] | > 500 |
| C[C@H]1O[C@@H](n2cnc3c(NCc4ccc(-n5ccnn5)cc4)ncnc32)[C@H](O)[C@@H]1O [Compound 326] | > 500 |
| C[C@H]1O[C@@H](n2cnc3c(N[C@H]4C[C@@H]4c4ccc(Cl)cc4)ncnc32)[C@H](O)[C@@H]1O [Compound 327] | > 500 |
| C[C@H]1O[C@@H](n2cnc3c(OCc4ccc(-n5cccn5)cc4)ncnc32)[C@H](O)[C@@H]1O [Compound 328] | > 500 |
| CN(C)C(=O)[C@H]1O[C@@H](n2cnc3c(OCc4ccc([N+](=O)[O-])cc4)ncnc32)[C@H](O)[C@@H]1O [Compound 329] | > 500 |
| C[C@H]1O[C@@H](n2cnc3c(C(=O)NCc4ccc(Cl)cc4F)ncnc32)[C@H](O)[C@@H]1O [Compound 330] | > 500 |
| Cc1cccc(C)c1CNc1ncnc2c1ncn2[C@@H]1O[C@H](C)[C@@H](O)[C@H]1O [Compound 331] | > 500 |
| C[C@H]1O[C@@H](n2cnc3c(OCc4cccc(S(C)(=O)=O)c4)ncnc32)[C@H](O)[C@@H]1O [Compound 332] | > 500 |
| C[C@H]1O[C@@H](n2cnc3c(OCc4ccc5cnn(C)c5c4)ncnc32)[C@H](O)[C@@H]1O [Compound 333] | > 500 |
| C[C@H]1O[C@@H](n2cnc3c(NCc4ccc(S(N)(=O)=O)cc4)ncnc32)[C@H](O)[C@@H]1O [Compound 334] | > 500 |
| C[C@H]1O[C@@H](n2cnc3c(NCc4cccc(OC(F)(F)F)c4)ncnc32)[C@H](O)[C@@H]1O [Compound 335] | > 500 |
| C[C@H]1O[C@@H](n2cnc3c(OCCc4ccc(OCF)nc4)ncnc32)[C@H](O)[C@@H]1O [Compound 336] | > 500 |
| C[C@H]1O[C@@H](n2cnc3c(SCc4ncc(F)cc4F)ncnc32)[C@H](O)[C@@H]1O [Compound 337] | > 500 |
| Cc1nc2ccc(COc3ncnc4c3ncn4[C@@H]3O[C@H](C)[C@@H](O)[C@H]3O)cc2o1 [Compound 338] | > 500 |
| Cc1cc2cc(CNc3ncnc4c3ncn4[C@@H]3O[C@H](C)[C@@H](O)[C@H]3O)ccc2[nH]1 [Compound 339] | > 500 |
| Cc1cc(C)c(COc2ncnc3c2ncn3[C@@H]2O[C@H](C)[C@@H](O)[C@H]2O)c(C)c1 [Compound 340] | > 500 |
| C[C@H]1O[C@@H](n2cnc3c(C(=O)Nc4ccc([N+](=O)[O-])cc4)ncnc32)[C@H](O)[C@@H]1O [Compound 341] | > 500 |
